Measured values as given in US20210002725A1, “METHODS FOR THE DIAGNOSIS OF METABOLIC DISORDERS USING EPIMETABOLIC SHIFTERS, MULTIDIMENSIONAL INTRACELLULAR MOLECULES, OR ENVIRONMENTAL INFLUENCES” (Berg LLC, priority 2009, published 2021).

How the values were obtained:
HASMC cells = assay: SeaHorse XF analyzer OCR and ECAR; type: cell-based, human; conditions: hyperglycemic cells in hypoxic conditions
Source text: Environmental influencers (e.g., MIMs or Epi-shifters) may also be identified by changes in cellular energetics. One example of the measurement of cellular energetics are the real-time measures of the consumption of molecular oxygen and/or the change in pH of the media of a cell culture. For example, the ability of a potential epi-shifter to modulate the metabolic state of a cell may be analyzed using, for example, the XF24 Analyzer (Seahorse, Inc.). This technology allows for real time detection of oxygen and pH changes in a monolayer of cells in order to evaluate the bioenergetics of a cell microenvironment. The XF24 Analyzer measures and compares the rates of oxygen consumption (OCR), which is a measure of aerobic metabolism, and extracellular acidification (ECAR), which is a measure of glycolysis, both key indicators of cellular energetics.
(SeaHorse Biosciences Inc, North Billerica, Mass.).
In this experiment, the OCR and extracellular acidification rate (ECAR) in normal cells lines were obtained in the presence and absence of CoQ10 to determine baseline values. It was observed that in its native nutrient environment, the basal OCR rates in normal cells lines are different, and are usually a function of the physiological roles of the cells in the body. […]

[1] = system: control and cancer cell lines; assay: Sensitivity and apoptotic response of a panel of control and cancer cell lines; type: cell-based; conditions: various levels of Coenzyme Q10
Procedure: In a first set of experiments, changes to cell morphology/physiology were evaluated by examining the sensitivy and apoptotic response of cells to CoQ10. […] Exemplary experiments are described in detail in Example 3 below.

[2] = system: HepG2 (liver cancer) cells; assay: Real-time PCR Angiogenesis Array; type: cell-based
Procedure: The treatment was initiated on 1×10^5 cells per well, following the procedure utilized in the PaCa2 cells (above Examples 9-11). However, the total amount of RNA that was extracted from these samples was lower than expected. Reverse transcription is normally done using 1 μg of total RNA (determined by measurement at 260 nm).

SMILES: COC1=C(OC)C(=O)C(C/C=C(\C)CC/C=C(\C)CC/C=C(\C)CC/C=C(\C)CC/C=C(\C)CC/C=C(\C)CC/C=C(\C)CC/C=C(\C)CC/C=C(\C)CCC=C(C)C)=C(C)C1=O [Q10, Coenzyme Q10]
- ECAR rates (HASMC cells): downward trend
- apoptotic response of cancer vs control cell lines [1]: induction of apoptosis and cell death in the cancer cells only
- ANGPTL3 upregulation over control ([2]; 100 μM Q10, 16 hours): approximately 5.5 fold
- ANGPTL4 upregulation over control ([2]; 100 μM Q10, 16 hours): ~3 fold
- CXCL1 upregulation over control ([2]; 100 μM Q10, 16 hours): ~3 fold
- CXCL3 upregulation over control ([2]; 100 μM Q10, 16 hours): ~3.2 fold
- CXCL5 upregulation over control ([2]; 100 μM Q10, 16 hours): ~3 fold
- ENG upregulation over control ([2]; 100 μM Q10, 16 hours): ~3 fold
- ID3 downregulation over control ([2]; 100 μM Q10, 16 hours): approximately 5 fold
- MMP2 upregulation over control ([2]; 100 μM Q10, 16 hours): approximately 1 fold
- TIMP3 upregulation over control ([2]; 100 μM Q10, 16 hours): ~6.5 fold
- ANGPTL3 upregulation over control ([2]; 100 μM Q10, 48 hours): approximately 3.5 fold
- ANGPTL4 downregulation over control ([2]; 100 μM Q10, 48 hours): approximately 1 fold
- CXCL1 upregulation over control ([2]; 100 μM Q10, 48 hours): ~1.5 fold
- CXCL3 upregulation over control ([2]; 100 μM Q10, 48 hours): ~3.175 fold
- CXCL5 downregulation over control ([2]; 100 μM Q10, 48 hours): approximately 1 fold
- ENG upregulation over control ([2]; 100 μM Q10, 48 hours): ~2 fold
- ID3 downregulation over control ([2]; 100 μM Q10, 48 hours): ~2 fold
- MMP2 downregulation over control ([2]; 100 μM Q10, 48 hours): ~18 fold
- TIMP3 upregulation over control ([2]; 100 μM Q10, 48 hours): ~3 fold
